Results as given in the NIST ThermoML archive (doi:10.1016/j.fluid.2016.10.004).

Details: for mass density: 100 kPa, Liquid, buoyancy

CCC[n+]1ccccc1C.O=S(=O)([N-]S(=O)(=O)C(F)(F)F)C(F)(F)F
surface tension liquid-gas [mN/m]
Details	Ring tensiometer	Wilhelmy plate
264.98 K	37.98	–
274.35 K	37.65	–
278.08 K	37.48	–
283.24 K	37.32	–
283.37 K	–	36.98
288.21 K	37.06	–
288.25 K	–	36.82
293.4 K	36.9	–
293.42 K	–	36.65
298.31 K	36.64	36.5
302.93 K	36.45	–
303.05 K	–	36.31
307.78 K	36.29	–
307.82 K	–	36.11
312.97 K	36.07	35.95
318.38 K	–	35.76
318.39 K	35.83	–
322.88 K	–	35.52
322.94 K	35.54	–
328.34 K	35.29	35.32
333.16 K	35.03	35.12
337.5 K	34.74	–
337.93 K	–	34.92
343.2 K	–	34.77
343.21 K	34.63	–
347.6 K	–	34.53
347.65 K	34.27	–
353.02 K	34.14	34.38
359.26 K	–	34.14
359.32 K	33.83	–
363.55 K	–	33.94
363.67 K	33.73	–

Details	mass density [kg/m3]
274.36 K	1487.31
278.09 K	1484.28
283.39 K	1478.78
288.24 K	1473.7
293.42 K	1468.58
298.29 K	1464.23
303.1 K	1459.95
307.9 K	1454.39
313.05 K	1449.74
318.4 K	1444.8
322.98 K	1440.18
328.44 K	1435.36
333.33 K	1430.49
338.04 K	1426.36
343.34 K	1421.49
347.7 K	1417.08
353.28 K	1412.49
359.15 K	1407.9
363.7 K	1403.29

CCC[n+]1ccc(C)cc1.O=S(=O)([N-]S(=O)(=O)C(F)(F)F)C(F)(F)F
Details	mass density [kg/m3]
268.1 K	1482.1
278.71 K	1469.95
283.45 K	1465.84
288.19 K	1461.42
293.46 K	1456.03
298.38 K	1450.93
303.12 K	1446.6
308.24 K	1440.93
313.15 K	1435.96
318.2 K	1431.59
323.16 K	1426.43
328.14 K	1421.84
333.57 K	1416.94
338.25 K	1412.36
343.8 K	1407.53
348.11 K	1402.8
353.25 K	1398.13
357.74 K	1394
362.63 K	1389.16

surface tension liquid-gas [mN/m]
Details	Ring tensiometer	Wilhelmy plate
288.19 K	35.82	–
288.22 K	–	35.61
293.49 K	35.56	35.39
298.37 K	35.36	35.2
303.11 K	35.17	–
303.12 K	–	35
308.15 K	34.96	–
308.17 K	–	34.85
313.06 K	34.66	34.65
318.14 K	–	34.48
318.15 K	34.46	–
323.06 K	–	34.25
323.07 K	34.23	–
327.97 K	33.95	–
328 K	–	34.04
332.97 K	33.7	–
333.36 K	–	33.79
338.08 K	–	33.6
338.17 K	33.44	–
343.75 K	–	33.43
343.8 K	33.2	–
347.87 K	–	33.2
348.11 K	32.98	–
353.29 K	–	33.01
353.47 K	32.7	–
357.58 K	–	32.83
357.72 K	32.42	–
362.45 K	–	32.61
362.65 K	32.22	–

CCC[n+]1cccc(C)c1.O=S(=O)([N-]S(=O)(=O)C(F)(F)F)C(F)(F)F
surface tension liquid-gas [mN/m]
Details	Ring tensiometer	Wilhelmy plate
264.14 K	36.35	–
268.06 K	36.23	–
273.39 K	36.1	–
273.45 K	–	35.78
278.42 K	35.88	35.59
283.19 K	35.6	–
283.2 K	–	35.41
288.5 K	35.39	–
288.67 K	–	35.22
292.92 K	35.23	–
292.99 K	–	35.06
298.42 K	35.03	–
298.44 K	–	34.88
303.1 K	34.83	–
303.12 K	–	34.68
308.03 K	34.64	–
308.04 K	–	34.53
312.72 K	–	34.29
312.75 K	34.39	–
318.22 K	34.12	–
318.25 K	–	34.08
323.19 K	–	33.91
323.23 K	33.95	–
328.11 K	33.69	33.65
333.15 K	–	33.46
333.21 K	33.43	–
339.21 K	–	33.18
339.28 K	33.18	–
342.59 K	33.03	–
342.65 K	–	33.08
347.77 K	–	32.85
347.91 K	32.78	–
352.59 K	–	32.7
352.62 K	32.49	–

Details	mass density [kg/m3]
264.25 K	1481.37
268.17 K	1476.75
273.62 K	1471.18
278.64 K	1466.69
283.23 K	1461.95
288.58 K	1456.8
293 K	1452.82
298.44 K	1448.15
303.17 K	1443.76
308.13 K	1438.23
312.76 K	1433.63
318.32 K	1428.63
323.28 K	1423.98
328.19 K	1419.2
333.31 K	1414.52
339.09 K	1409.83
342.77 K	1406.02
348.02 K	1401
352.77 K	1396.52
358.08 K	1391.47
363.28 K	1386.7

CCC[n+]1ccccc1.O=S(=O)([N-]S(=O)(=O)C(F)(F)F)C(F)(F)F [1-propylpyridinium bis((trifluoromethyl)sulfonyl)amide]
Details	surface tension liquid-gas [mN/m]
318.35 K, Wilhelmy plate	34.52
318.38 K, Ring tensiometer	34.67
322.86 K, Wilhelmy plate	34.29
322.89 K, Ring tensiometer	34.46
328.15 K, Wilhelmy plate	34.02
328.19 K, Ring tensiometer	34.21
333.17 K, Wilhelmy plate	33.75
333.21 K, Ring tensiometer	33.97
338 K, Wilhelmy plate	33.56
338.03 K, Ring tensiometer	33.8
343.1 K, Wilhelmy plate	33.35
343.11 K, Ring tensiometer	33.56
347.59 K, Ring tensiometer	33.34
347.63 K, Wilhelmy plate	33.13
353.31 K, Wilhelmy plate	32.87
353.34 K, Ring tensiometer	33.1
358.35 K, Wilhelmy plate	32.64
358.37 K, Ring tensiometer	32.82
362.09 K, Wilhelmy plate	32.43
362.18 K, Ring tensiometer	32.61

Details	mass density [kg/m3]
318.41 K	1468.8
323.02 K	1464.45
328.3 K	1459.61
333.28 K	1454.58
338.11 K	1450.05
343.18 K	1445.34
347.36 K	1440.68
353.35 K	1435.49
357.87 K	1430.78
362.15 K	1426.55
